Values quoted from earlier work as cited in US8114298B2, “Method, device and system for water treatment” (Bromine Compounds Ltd., priority 2006, dated 2012).

Columns and labels:
[1] = at 25° C.
[2] = bleach; background statement

Row | Structure (SMILES) | solubility in water [1] | shelf life [2]
1 | O=c1nc([O-])n(Cl)c(=O)n1Cl.[Na+] [NaDCC, sodium dichloroisocyanurate] | up to 24% | 
2 | OCl [Sodium Hypochlorite] |  | 3-6 months
